Source: patent US12152012B2, “BRAG2 inhibitors and applications thereof” (CENTRE NATIONAL DE LA RECHERCHE SCIENTIFIQUE, priority 2018, dated 2024)

What was measured:
[1] = Stability of DMSO stock solution (1H-NMR); type: physicochemical; conditions: kept in DMSO for several months
[2] = target: T1, BRAG2 (activation of myristoylated Arf6) (Homo sapiens, UniProt Q6DN90); assay: Nucleotide exchange kinetics on liposomes, activation of myristoylated Arf6; type: biochemical; conditions: 50 μM
T1 construct: human BRAG2^Sec7 (390-594) and BRAG2^Sec7PH (390-811); made in house
Protocol: FIG. 2. Bragsin is a specific inhibitor of the ArfGEF BRAG2 • a. Bragsin1 has no effect on the Sec7 domain of human ArfGEFs in solution. Nucleotide exchange kinetics were measured by fluorescence kinetics in the presence of Bragsin1 (50 μM) or DMSO using purified Sec7 domains and a truncated version of Arf1 (D17Arf1), which can be activated in solution. […] Nucleotide exchange kinetics were determined in the presence of Bragsin1 (50 μM) or DMSO with ArfGEF constructs carrying membrane-binding domains and myristoylated Arf1. […] was artificially tethered to liposomes by a C-terminal hexahistidine tag as described in (Peurois, F. et al. Biochem J 474, 1259-1272 (2017). Representative kinetic profiles are given in FIG. 15. • c. Bragsin1 inhibits the activation of myristoylated Arf6 by BRAG2 on liposomes. Experiments were carried out as in FIG. 2b. Representative kinetic profiles are given in FIG. 16. • d. Dose-response of Bragsin1 and Bragsin2 towards myristoylated Arf1 and BRAG2 on liposomes. Experiments were carried out as in FIG. 2b. • e. Silencing of BRAG2 phenocopies the effect of Bragsin2 on the TGN46 compartment. […]
The effect of Bragsin1 on the GEF efficiency of representative human ArfGEFs was evaluated by fluorescence kinetics using highly purified recombinant Arf GTPases and ArfGEFs. […]

[3] = test system: EEA1 (early endosome marker) in Hela cells; assay: Immunostaining and confocal microscopy of Hela cells; type: cell-based, human; conditions: 50 μM, 30 min
Protocol: FIG. 1. Bragsin2 affects Arf pathways in cells • a. Chemical structures of Bragsin1 and Bragsin2 and derivatives used in this study. Chemical synthesis and structural characterization of the compounds are described in example 6. • b. Bragsin2 disperses the TGN46 and GM130 markers. HeLa cells were treated with either DMSO (0.25%) or Bragsin2 (50 μM) for 30 min, immunostained for TGN46, GM130 or EEA1 (green channel) and analysed by confocal microscopy. Dispersion of GM130 and TGN46 by Bragsin2 is reversible. Hela cells were treated as in FIG. 1a and were incubated for an additional 30 min in fresh medium (wash panel) prior to immunostaining and confocal microscopy analysis. Expression of Arf-mCherry constructs carrying an activating mutation rescues the effect of Bragsin2. Hela cells were transfected with constitutively active Q/L mutants of Arf-mCherry. Note the difference between non-transfected cells (white asterisk) and transfected cells. Scale bars, 10 μm.
Hela cells were grown in Dulbecco's modified Eagle's medium supplemented with Glutamax™ and 10% fetal bovine serum (Invitrogen). For immunofluorescence studies, cells were grown on Labtek glass slides (Nunc) and transfected for 18 to 24 h using Lipofectamine 2000 (Invitrogen), according to the supplier's instructions. When specified, cells were treated with the indicated concentration of small molecule or corresponding volume of vehicle (DMSO) in growth medium for 30 min at 37° C.
(§1) Immunostaining procedure was as described in (Viaud, J. et al. Structure-based discovery of an inhibitor of Arf activation by Sec7 domains through targeting of protein-protein complexes. Proc Natl Acad Sci USA 104, 10370-5 (2007)) except that secondary antibody incubation was performed for 1h using Alexa 488-conjugated goat anti-mouse (1:600) or donkey anti-sheep (1:500) IgG and Alexa 647-conjugated phalloidin (1:100). Anti-GM130 was used at dilution 1:200. Images were bidirectionally recorded using an inverted Leica TCS SP8 laser-scanning confocal microscope with a 100× (N. A. 1.40) oil objective (HCX APO, Leica). Fluorochromes were detected sequentially using excitation laser lines at 488 nm (Alexa 488), 594 nm (mCherry) and 633 nm (Alexa 647). Stacks were generated using a z-step of 0.5 μm and processed using Fiji/ImageJ (Schindelin, J. et al. Fiji: an open-source platform for biological-image analysis. Nat Methods 9, 676-82 (2012)). Images are representative of at least two independent experiments.

[4] = test system: tubulin and actin networks in Hela cells; assay: as above; type: cell-based, human; conditions: 50 μM, 30 min
Protocol: FIG. 10: Bragsin2 has no effect on the tubulin and actin networks in Hela cells. HeLa cells were treated with either DMSO (0.25%) or Bragsin2 (50 μM) for 30 min, immunostained for α-tubulin (green channel) or F-actin (magenta channel) and analysed by confocal microscopy.
Hela cells were grown in Dulbecco's modified Eagle's medium supplemented with Glutamax™ and 10% fetal bovine serum (Invitrogen). For immunofluorescence studies, cells were grown on Labtek glass slides (Nunc) and transfected for 18 to 24 h using Lipofectamine 2000 (Invitrogen), according to the supplier's instructions. […]
as §1, with “Anti-GM130 was used at dilution 1:200.” left out, “Stacks were generated using a z-step of 0.5 μm and processed using Fiji/ImageJ (Schindelin, J. et al. Fiji: an open-source platform for biological-image analysis. Nat Methods 9, 676-82 (2012)). Images are representative of at least two independent experiments.” left out

T1 sequence (Q6DN90 512-933): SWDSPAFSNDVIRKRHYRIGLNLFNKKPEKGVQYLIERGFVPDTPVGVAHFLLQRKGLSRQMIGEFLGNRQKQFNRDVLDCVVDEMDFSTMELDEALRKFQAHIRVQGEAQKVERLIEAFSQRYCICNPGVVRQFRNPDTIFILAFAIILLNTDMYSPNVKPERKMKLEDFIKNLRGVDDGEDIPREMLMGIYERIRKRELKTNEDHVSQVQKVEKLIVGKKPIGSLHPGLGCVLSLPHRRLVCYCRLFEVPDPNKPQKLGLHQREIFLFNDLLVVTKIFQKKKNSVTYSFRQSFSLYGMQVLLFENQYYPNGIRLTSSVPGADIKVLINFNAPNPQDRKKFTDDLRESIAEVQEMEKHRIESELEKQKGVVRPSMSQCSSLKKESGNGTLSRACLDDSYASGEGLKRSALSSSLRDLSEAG

Row | Stability in DMSO stock solution by 1H-NMR [1] | Inhibition of BRAG2-mediated activation of myristoylated Arf6 [2] | SMILES | Effect on early endosome marker EEA1 [3] | Effect on tubulin and actin networks [4]
1 | completely decomposed | inhibits | Cc1ccc2oc(C(F)(F)F)cc(=O)c2c1[N+](=O)[O-] [Bragsin1, 6-methyl-5-nitro-2-(trifluoromethyl)-4H-chromen-4-one] |  | 
2 |  |  | COc1ccc2oc(C(F)(F)F)cc(=O)c2c1[N+](=O)[O-] [Bragsin2, 6-methoxy-5-nitro-2-(trifluoromethyl)-4H-chromen-4-one] | no effect | no effect
